Structures are written as SMILES.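 Cells were grown in 96-well plates and exposed to each compound for 48 hours at five concentrations; endpoints were interpolated linearly between bracketing concentrations, or set to the highest concentration if not reached. GI50 = concentration required for 50% inhibition of growth.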 The source made the active and inactive calls. Rule as the data show it: active = GI50 up to about 1.1 µM and inactive = higher. A value given as a limit tells only on which side of the number the result lay.

The values below come from ChEMBL document CHEMBL1201862, “PubChem BioAssay data set” (2004).

Holding throughout (experiment): NCI-60 cell line screen, 48 h
Experiment [1] concerns HOP-92.
For experiment [2], the system named is SF-539.
Experiment [3] relates to HT-29.
In experiment [4] the test system is SNB-75.
Experiment [5] concerns HL-60.
For experiment [6], the system named is OVCAR-3.
The test system of experiment [7] is SF-268.
Experiment [8] has as its system MDA-MB-435.
In experiment [9] the test system is UACC-257.
The test system of experiment [10] is OVCAR-4.
The test system of experiment [11] is COLO 205.
Experiment [12] deals with RPMI-8226.
In experiment [13] the test system is CAKI-1.
Experiment [14] has as its system HCT-15.
The subject of experiment [15] is MDA-MB-231.
In experiment [16] the test system is MCF7.
Experiment [17] deals with K562.
For experiment [18], the system named is OVCAR-8.
For experiment [19], the system named is A498.

With `CC(=O)NC1CONC1=O` (centres undefined), the GI50 in experiment [1], in experiment [2], in experiment [3], in [4], in experiment [5] and in [6] was > 100 µM (inactive) in each case. The GI50 in experiment [7], in [8], in [9], in [10], in experiment [11] and in experiment [12] was > 100 µM (inactive) throughout. For the same compound, the GI50 in [13] was > 100 µM (inactive); in [14], greater than 100 µM; in experiment [15] it was > 100 µM (inactive); in experiment [16], > 100 µM (inactive); in experiment [17] it was > 100 µM (inactive); in experiment [18], > 100 µM (inactive). The GI50 in experiment [19] is > 100 µM (inactive).
Regarding `COc1ccc(/C=C/C(=O)Oc2ccccc2OC)cc1`, the GI50 was > 48.2 µM (inactive) in experiment [1]; 53.2 µM (inactive) in experiment [2]; 16.4 µM (inactive) in [3]; 27.2 µM (inactive) in experiment [4]; 6.98 µM (inactive) in [5]; 53.8 µM (inactive) in experiment [6]. In addition, the GI50 in experiment [7] was 1.81 µM (inactive); in [8] it was 40.6 µM (inactive); in experiment [9] it was > 60.7 µM (inactive); in experiment [10], 9.59 µM (inactive); in experiment [11], 7.26 µM (inactive); in [12] it was 1.95 µM (inactive). In addition, the GI50 in experiment [13] is > 46.1 µM (inactive); in experiment [14], 3.27 µM; in experiment [15] it was 6.52 µM (inactive); in experiment [16] it was 44.4 µM (inactive); in experiment [17] it was 23.8 µM (inactive); in [18], 26.5 µM (inactive). For the same compound, the GI50 in experiment [19] is > 100 µM (inactive).
For the compound `COc1cc(C2c3cc4c(cc3OC3(OC)COC(=O)C23)OCO4)cc(OC)c1OC` (centres undefined), the GI50 in experiment [1] is 3.22 µM (inactive); in experiment [2], 0.197 µM (active); in [3], 0.274 µM (active); in experiment [4] it was 0.311 µM (active); in [5], 0.263 µM (active); in [6], 0.282 µM (active). Besides, the GI50 was 0.514 µM (active) in experiment [7]; 0.0863 µM (active) in experiment [8]; 2.66 µM (inactive) in experiment [9]; 4.85 µM (inactive) in experiment [10]; 0.251 µM (active) in experiment [11]; 0.284 µM (active) in [12]. Also, the GI50 is 0.568 µM (active) in experiment [13]; 0.286 µM in experiment [14]; 0.29 µM (active) in experiment [15]; 0.292 µM (active) in experiment [16]; 0.23 µM (active) in experiment [17]; 0.332 µM (active) in experiment [18]. Further, the GI50 in experiment [19] was 0.281 µM (active).
On to `COc1cc2c(cc1OCCCCN1CCN(CCCCOc3cc4c(cc3OC)C(=O)N3CCC[C@H]3C=N4)CC1)N=C[C@@H]1CCCN1C2=O`, for which the GI50 was < 0.01 µM (active) in experiment [1]; < 0.01 µM (active) in experiment [2]; 0.0443 µM (active) in experiment [3]; 0.0262 µM (active) in experiment [4]; < 0.01 µM (active) in experiment [5]; 0.0372 µM (active) in [6]. Besides, the GI50 in [7] was < 0.0289 µM (active); in experiment [8], 0.0508 µM (active); in experiment [9] it was 0.0627 µM (active); in experiment [10], 0.0776 µM (active); in experiment [11], 0.0158 µM (active); in experiment [12] it was < 0.0125 µM (active). In addition, the GI50 in experiment [13] is 0.0318 µM (active); in [14], 1.14 µM; in experiment [15], 0.0378 µM (active); in experiment [16], < 0.0318 µM (active); in [17] it was 0.0199 µM (active); in experiment [18], < 0.0172 µM (active). Further, the GI50 in experiment [19] is 0.0543 µM (active).
As for `CC1(C)C(=O)N(O)C(C)(C)N1O`, the GI50 in [1], in experiment [2], in experiment [3], in [4], in [5] and in experiment [6] was > 10 µM (inactive) in each case. The GI50 in experiment [7], in experiment [8], in experiment [9], in experiment [10], in experiment [11] and in [12] was > 10 µM (inactive) throughout. Also, the GI50 was > 10 µM (inactive) in experiment [13]; greater than 10 µM in experiment [14]; > 10 µM (inactive) in experiment [15]; > 10 µM (inactive) in experiment [16]; > 10 µM (inactive) in [17]; > 10 µM (inactive) in [18]. Moreover, the GI50 in experiment [19] is > 10 µM (inactive).
Regarding `NC(=O)c1cccc(/N=c2\oc3ccc(Br)cc3cc2-c2nc3ccccc3[nH]2)c1`, the GI50 in [1] is 19 µM (inactive); in experiment [2], 2.49 µM (inactive); in experiment [3] it was 15.8 µM (inactive); in experiment [4] it was 1.47 µM (inactive); in experiment [5] it was 18.1 µM (inactive); in experiment [6], 16.2 µM (inactive). For the same compound, the GI50 in experiment [7] is 15.1 µM (inactive); in [8] it was 15.1 µM (inactive); in experiment [9], 20 µM (inactive); in experiment [10], 18.8 µM (inactive); in [11], 14.6 µM (inactive); in experiment [12], 5.87 µM (inactive). The GI50 in experiment [13] is 18 µM (inactive); in experiment [14], 12.7 µM; in [15], 7.55 µM (inactive); in [16], 12.9 µM (inactive); in experiment [17], 18.8 µM (inactive); in [18], 7.62 µM (inactive). In addition, in experiment [19], the GI50 is 18.4 µM (inactive).
On to `O=C1CC(NCc2ccccc2)c2c(Cl)sc(Cl)c21` (centres undefined), for which the GI50 in experiment [1] was 34.8 µM (inactive); in experiment [2], 27.2 µM (inactive); in experiment [3] it was 28.2 µM (inactive); in experiment [4], 29.8 µM (inactive); in experiment [5], 17.2 µM (inactive); in [6], 20 µM (inactive). In addition, the GI50 was 16.3 µM (inactive) in experiment [7]; 24.7 µM (inactive) in experiment [8]; 19.6 µM (inactive) in experiment [9]; 28.4 µM (inactive) in experiment [10]; 21.6 µM (inactive) in [11]; 2.26 µM (inactive) in experiment [12]. For the same compound, the GI50 in experiment [13] was 23.2 µM (inactive); in experiment [14] it was 20.1 µM; in experiment [15] it was 27.1 µM (inactive); in experiment [16] it was 14 µM (inactive); in [17], 16.6 µM (inactive); in [18], 18 µM (inactive). Moreover, the GI50 in experiment [19] was > 60.3 µM (inactive).
For `CN(C)c1cc2ccccc2oc1=O`, the GI50 in experiment [1], in [2], in [3], in experiment [4], in [5] and in [6] was > 100 µM (inactive) throughout. Further, the GI50 in [7], in [8], in experiment [9], in experiment [10], in [11] and in [12] was > 100 µM (inactive) each time. Moreover, the GI50 was > 100 µM (inactive) in experiment [13]; greater than 100 µM in [14]; > 100 µM (inactive) in [15]; > 100 µM (inactive) in [16]; > 100 µM (inactive) in [17]; > 100 µM (inactive) in [18]. The GI50 in [19] was > 100 µM (inactive).
Take `O=C(CC(=O)CC(O)(C(F)(F)F)C(F)(F)F)CC(O)(C(F)(F)F)C(F)(F)F`: the GI50 in experiment [1] is 5.75 µM (inactive); in experiment [2], > 10 µM (inactive); in experiment [3] it was 8.49 µM (inactive); in experiment [4], > 10 µM (inactive); in [5], > 10 µM (inactive); in experiment [6] it was > 10 µM (inactive). Further, the GI50 in experiment [7], in experiment [8], in [9], in experiment [10], in experiment [11] and in experiment [12] was > 10 µM (inactive) throughout. In addition, the GI50 was > 10 µM (inactive) in experiment [13]; greater than 10 µM in experiment [14]; > 10 µM (inactive) in experiment [15]; > 10 µM (inactive) in [16]; > 10 µM (inactive) in experiment [17]; > 10 µM (inactive) in experiment [18]. Besides, in experiment [19], the GI50 was > 10 µM (inactive).
Regarding `C/C(=N\Nc1nc2ccccc2o1)c1cc2ccccc2cn1`, the GI50 is < 0.0208 µM (active) in experiment [1]; < 0.0281 µM (active) in experiment [2]; < 0.01 µM (active) in experiment [3]; 0.476 µM (active) in experiment [4]; < 0.01 µM (active) in experiment [5]; < 0.01 µM (active) in experiment [6]. Also, the GI50 in experiment [7] is < 0.0188 µM (active); in experiment [8] it was 0.202 µM (active); in [9], < 0.01 µM (active); in experiment [10], 0.0906 µM (active); in experiment [11], < 0.01 µM (active); in [12], < 0.0235 µM (active). Besides, the GI50 is < 0.01 µM (active) in experiment [13]; less than 0.01 µM in [14]; < 0.01 µM (active) in [15]; < 0.01 µM (active) in experiment [16]; < 0.01 µM (active) in experiment [17]; < 0.01 µM (active) in [18]. In addition, in [19], the GI50 is 15 µM (inactive).
With `CN(C)CCNc1ccc2c(=O)n(CCN(C)C)c(=O)n3c4ccc([N+](=O)[O-])cc4c(=O)c1c23`, the GI50 in [1] is 0.201 µM (active); in [2] it was 0.277 µM (active); in experiment [3] it was 0.0946 µM (active); in experiment [4] it was 0.293 µM (active); in [5], 0.157 µM (active); in [6] it was 0.27 µM (active). In addition, the GI50 in experiment [7] was 0.334 µM (active); in experiment [8], 0.49 µM (active); in [9], 0.728 µM (active); in [10] it was 0.301 µM (active); in experiment [11] it was 0.179 µM (active); in [12], 0.163 µM (active). Moreover, the GI50 in experiment [13] is 0.498 µM (active); in experiment [14] it was 0.0966 µM; in experiment [15] it was 0.429 µM (active); in [16], 0.0716 µM (active); in experiment [17], 0.063 µM (active); in [18] it was 0.248 µM (active). The GI50 in experiment [19] is 1.41 µM (inactive).
